Test results from patent US20110183978A1, “Phenylpyri(mi)dinylazoles” (Bayer CropScience AG, priority 2009, published 2011).

Assay: physchem
[1] = LogPA (logP of the stated pure compound or, in a mixture, of the main isomer, 1-substituted 3-aryl-1H-pyrazole)

SMILES	chromatographic logP (pH 2.3, LogP (pH 2.3))	chromatographic logP (pH 2.7, logP (pH 2.7))	other results
FC(F)(F)c1cccc(-c2nn(C3CCCCO3)cc2-c2cc(N3CCOCC3)ncn2)c1 (stereo not shown) [Compound 36]	–	–	chromatographic logP [1]: 2.1
CC(C)n1cc(-c2ccncc2)c(-c2c(F)cccc2F)n1 [[I-d-1], 4-[3-(2,6-Difluorophenyl)-1-isopropyl-1H-pyrazol-4-yl]pyridine]	–	1.4	–
Fc1ccc(-c2c(-c3ccncc3)cnn2C2CCCCO2)cc1Cl (stereo not shown) [[X-6], 4-[5-(3-chloro-4-fluorophenyl)-1-(tetrahydro-2H-pyran-2-yl)-1H-pyrazol-4-yl]pyridine]	1.57	–	–
COCC(=O)Nc1nccc(-c2cn(C(C)C)nc2-c2ccc(F)cc2)n1 [Compound 354]	–	–	chromatographic logP (LogPA): 2.37
COCCn1cc(-c2ccnc(NC(C)C)n2)c(-c2ccc(F)cc2)n1 [Compound 358]	–	–	chromatographic logP (LogPA): 1.79
CC(C)n1cc(B2OC(C)(C)C(C)(C)O2)c(-c2ccc(F)cc2)n1 [[V-1], 3-(4-Fluorophenyl)-1-isopropyl-4-(4,4,5,5-tetramethyl-1,3,2-dioxaborolan-2-yl)-1H-pyrazole]	4.46	4.51	–
CC(C)S(=O)(=O)Nc1cc(-c2cn(CC(F)F)nc2-c2ccc(F)cc2)ccn1 [Compound 234]	–	–	chromatographic logP (LogPA): 3.96
CCn1cc(-c2ccnc(NC(=O)CCc3ccc(Cl)cc3)c2)c(-c2ccc(F)cc2)n1 [Compound 336]	–	–	chromatographic logP (LogPA): 3.32
Cc1cc(-c2c(-c3ccncc3)cnn2C2CCCCO2)ccc1F (stereo not shown) [Compound 55]	–	–	chromatographic logP [1]: 1.47
COCC(=O)Nc1cc(-c2cn(C3CCN(C(=O)OC(C)(C)C)CC3)nc2-c2ccc(F)cc2)ccn1 [Compound 204]	–	–	chromatographic logP (LogPA): 3.51
CS(=O)(=O)c1ccc(-c2c(-c3ccncc3)cnn2C2CCCCO2)cc1 (stereo not shown) [Compound 68, 4-{5-[4-(methylsulphonyl)phenyl]-1-(tetrahydro-2H-pyran-2-yl)-1H-pyrazol-4-yl}pyridine]	–	–	chromatographic logP [1]: 0.96
Fc1ccc(-c2nn(Cc3ccc(-c4ccccc4)cc3)cc2-c2ccncc2)cc1 [Compound 131]	–	–	chromatographic logP [1]: 2.39
O=C(Nc1ccccc1)c1cc(-c2cn(C3CCCCO3)nc2-c2cccc(Cl)c2)ccn1 (stereo not shown) [Compound 96]	–	–	chromatographic logP [1]: 4.89
CC(C)(C)C(=O)Nc1cc(-c2cnn(C3CCCCO3)c2-c2cccc(C(F)(F)F)c2)ccn1 (stereo not shown) [Compound 82]	–	–	chromatographic logP [1]: 3.84
c1ccc(COc2ccccc2-c2c(-c3ccncc3)cnn2C2CCCCO2)cc1 (stereo not shown) [Compound 98, 4-{5-[2-(benzyloxy)phenyl]-1-(tetrahydro-2H-pyran-2-yl)-1H-pyrazol-4-yl}pyridine]	–	–	chromatographic logP [1]: 1.64
FC(F)(F)Oc1ccc(-c2c(-c3ccncc3)cnn2C2CCCCO2)cc1 (stereo not shown) [Compound 71]	–	–	chromatographic logP [1]: 1.78
COCC(=O)Nc1cc(-c2c(-c3ccc(F)cc3O)nn(C)c2OC(F)F)ccn1 [Compound 201]	–	–	chromatographic logP (LogPA): 2.38
CC(C)Cn1cc(-c2ccnc(NC(C)C3CC3)n2)c(-c2ccc(F)cc2)n1 (stereo not shown) [Compound 372]	–	–	chromatographic logP (LogPA): 2.73
CC(C)Cn1cc(B2OC(C)(C)C(C)(C)O2)c(-c2ccc(F)cc2)n1 [[V-3], 3-(4-Fluorophenyl)-1-isobutyl-4-(4,4,5,5-tetramethyl-1,3,2-dioxaborolan-2-yl)-1H-pyrazole]	4.89	4.76	–
CC(C)n1cc(-c2ncnc3c2CCCN3)c(-c2ccc(F)cc2)n1 [Compound 311]	–	–	chromatographic logP (LogPA): 1.29
COc1ccc(-c2nn(C3CCCCO3)cc2-c2ncnc3[nH]ccc23)cc1 (stereo not shown) [Compound 65]	–	–	chromatographic logP [1]: 1.54

SMILES	chromatographic logP (pH 2.3, LogP (pH 2.3))	chromatographic logP (pH 2.7, logP (pH 2.7))	other results
COc1cc(F)ccc1-c1c(-c2ccncc2)cnn1C1CCCCO1 (stereo not shown) [[X-14], 4-[5-(4-fluoro-2-methoxyphenyl)-1-(tetrahydro-2H-pyran-2-yl)-1H-pyrazol-4-yl]pyridine]	1.26	–	–
COc1ccc(-c2c(-c3ccncc3)cnn2C2CCCCO2)c2ccccc12 (stereo not shown) [Compound 45]	–	–	chromatographic logP [1]: 1.69
c1ccc(Oc2cccc(-c3c(-c4ccncc4)cnn3C3CCCCO3)c2)cc1 (stereo not shown) [[X-16], 4-[5-(3-phenoxyphenyl)-1-(tetrahydro-2H-pyran-2-yl)-1H-pyrazol-4-yl]pyridine]	1.88	–	–
Fc1ccc(-c2nn(Cc3ccc(F)c(Oc4ccccc4)c3)cc2-c2ccncc2)cc1 [Compound 139]	–	–	chromatographic logP [1]: 2.4
COCC(=O)Nc1cc(-c2c(-c3cc(F)c(C#N)cc3F)nn(C)c2OC(F)F)ccn1 [Compound 199]	–	–	chromatographic logP (LogPA): 2.59
C#CCn1ccc2c(-c3cn(C4CCCCO4)nc3-c3ccc(F)cc3)ccnc21 (stereo not shown) [Compound 49]	–	–	chromatographic logP [1]: 3.47
CC(C)Cn1cc(-c2ccnc(NC(=O)C(C)C)c2)c(-c2ccc(F)cc2)n1 [[I-c-2], N-{4-[3-(4-fluorophenyl)-1-isobutyl-1H-pyrazol-4-yl]pyridin-2-yl}-2-methylpropanamide]	–	2.89	–
CN(C)C=C(C(=O)c1c(F)cccc1F)c1ccncc1 [[XXVI-1], 1-(2,6-Difluorophenyl)-3-(dimethylamino)-2-(pyridin-4-yl)prop-2-en-1-one]	–	0.6	–
CC(C)(C)c1ccc(-c2c(-c3ccncc3)cnn2C2CCCCO2)cc1 (stereo not shown) [[X-9], 4-[5-(4-tert-butylphenyl)-1-(tetrahydro-2H-pyran-2-yl)-1H-pyrazol-4-yl]pyridine]	2.02	–	–
CC(C)n1nc(-c2ccc(F)cc2)c(Br)c1OC(F)F [[VI-b-2], 4-Bromo-5-(difluoromethoxy)-3-(4-fluorophenyl)-1-isopropyl-1H-pyrazole]	4.61	4.61	–
CC(C)Cn1cc(-c2ccnc(N(C(=O)C(C)C)C(C)C)n2)c(-c2ccc(F)cc2)n1 [Compound 185]	–	–	chromatographic logP (LogPA): 4.25
Fc1ccc(-c2c(-c3ccncc3)cnn2C2CCCCO2)c(F)c1 (stereo not shown) [[X-8], 4-[5-(2,4-difluorophenyl)-1-(tetrahydro-2H-pyran-2-yl)-1H-pyrazol-4-yl]pyridine]	1.35	–	–
CCOC(=O)Nc1cc(B2OC(C)(C)C(C)(C)O2)ccn1 [[XV-a-6], Ethyl [4-(4,4,5,5-tetramethyl-1,3,2-dioxaborolan-2-yl)pyridin-2-yl]carbamate]	–	0	–
CC(C)Nc1nccc(CC(=O)c2ccc(F)cc2)n1 [[XLIV-1], 1-(4-fluorophenyl)-2-[2-(isopropylamino)pyrimidin-4-yl]ethanone]	–	2.05	–
CC1(C)OB(c2cn(C3CC3)nc2-c2ccc(F)cc2)OC1(C)C [[V-7], 1-Cyclopropyl-3-(4-fluorophenyl)-4-(4,4,5,5-tetramethyl-1,3,2-dioxaborolan-2-yl)-1H-pyrazole]	3.47	3.47	–
c1cnc2c(-c3c(-c4ccncc4)cnn3C3CCCCO3)cccc2c1 (stereo not shown) [[X-24], 8-[4-(pyridin-4-yl)-1-(tetrahydro-2H-pyran-2-yl)-1H-pyrazol-5-yl]quinoline]	1.09	–	–
CSc1nccc(-c2c[nH]nc2-c2ccc(F)cc2)n1 [[XXXIX-1], 4-[3-(4-Fluorophenyl)-1H-pyrazol-4-yl]-2-(methylsulphanyl)pyrimidine]	–	2.28	–
FCC(CF)n1cc(-c2ccncc2)c(-c2ccc(F)cc2)n1 [Compound 177]	–	–	chromatographic logP (LogPA): 1.16
CSCCn1cc(Br)c(-c2ccc(F)cc2)n1 [[VI-15], 4-Bromo-3-(4-fluorophenyl)-1-[2-(methylsulphanyl)ethyl]-1H-pyrazole]	3.63	3.63	–
CCn1cc(Br)c(-c2ccc(F)cc2)n1 [[VI-2], 4-Bromo-1-ethyl-3-(4-fluorophenyl)-1H-pyrazole]	3.32	3.37	–

Continued, in another order:

chromatographic logP (pH 2.3, LogP (pH 2.3))	chromatographic logP (pH 2.7, logP (pH 2.7))	SMILES	other results
4.42	4.42	CC1(C)OB(c2cn(CC3CC3)nc2-c2ccc(F)cc2)OC1(C)C [[V-8], 1-(Cyclopropylmethyl)-3-(4-fluorophenyl)-4-(4,4,5,5-tetramethyl-1,3,2-dioxaborolan-2-yl)-1H-pyrazole]	–
4.43	4.43	Fc1ccc(-c2nn(CC3CC3(Cl)Cl)cc2Br)cc1 (stereo not shown) [[VI-10], 4-bromo-1-[(2,2-dichlorocyclopropyl)methyl]-3-(4-fluorophenyl)-1H-pyrazole]	–
–	2.9	CC(C)n1cc(-c2ccnc(S(C)(=O)=O)n2)c(-c2ccc(F)cc2)n1 [[XLI-1], 4-[3-(4-Fluorophenyl)-1-isopropyl-1H-pyrazol-4-yl]-2-(methylsulphonyl)pyrimidine]	–
–	1.51	N#Cc1cccc(Cn2cc(-c3ccncc3)c(-c3ccc(F)cc3)n2)c1 [[I-3], 3-{[3-(4-Fluorophenyl)-4-(pyridin-4-yl)-1H-pyrazol-1-yl]methyl}benzonitrile]	–
4.15	4.15	CC(C)Cn1cc(Br)c(-c2ccc(F)c(C#N)c2)n1 [[VI-11], 5-(4-Bromo-1-isobutyl-1H-pyrazol-3-yl)-2-fluorobenzonitrile]	–
–	1.54	CC(C)n1ncc(-c2ccncc2)c1-c1c(F)cccc1F [[I-d-2], 4-[5-(2,6-Difluorophenyl)-1-isopropyl-1H-pyrazol-4-yl]pyridine]	–
–	2.9	COCCn1ncc(Br)c1-c1ccc(F)cc1 [[VI-7], 4-Bromo-5-(4-fluorophenyl)-1-(2-methoxyethyl)-1H-pyrazole]	–
3.52	3.52	Cn1nc(-c2ccc(F)cc2)c(Br)c1OC(F)F [[VI-b-1], 4-Bromo-5-(difluoromethoxy)-3-(4-fluorophenyl)-1-methyl-1H-pyrazole]	–
0.96	–	CS(=O)(=O)c1ccc(-c2c(-c3ccncc3)cnn2C2CCCCO2)cc1 (stereo not shown) [[X-17], 4-{5-[4-(methylsulphonyl)phenyl]-1-(tetrahydro-2H-pyran-2-yl)-1H-pyrazol-4-yl}pyridine]	–
–	-0.18	COCC(=O)Nc1cc(B2OC(C)(C)C(C)(C)O2)ccn1 [[XV-a-1], 2-Methoxy-N-[4-(4,4,5,5-tetramethyl-1,3,2-dioxaborolan-2-yl)pyridin-2-yl]acetamide]	–
0.98	0.98	COCCn1cc(-c2ccnc(N)c2)c(-c2ccc(F)cc2)n1 [[III-2], 4-[3-(4-Fluorophenyl)-1-(2-methoxyethyl)-1H-pyrazol-4-yl]pyridin-2-amine]	–
1.26	–	c1cc(-c2cnn(C3CCCCO3)c2-c2ccc(N3CCOCC3)cc2)ccn1 (stereo not shown) [[X-15], 4-{4-[4-(pyridin-4-yl)-1-(tetrahydro-2H-pyran-2-yl)-1H-pyrazol-5-yl]phenyl}morpholine]	–
